Data set [1] can be described thus: Body weight at gross necropsy after 4 weeks of treatment (chronic model). The format is in vivo, Balb/c mouse. The conditions noted are these: Group 8, INH, individual mice. On the procedure: When evaluated in the “Chronic Balb/c mouse model” of M. tuberculosis infection by the method of Lenaerts, A. J., et. al. 2005. Preclinical testing of the nitroimidazopyran PA-824 for activity against M. tuberculosis in a series of in vitro and in vivo models. AAC. 49(6):2294-301. ND-012101 at 200 mg/kg and ND-012101(100 mg/kg)+ABT (100 mg/kg) both achieved 100% mouse survival after 4 weeks of oral dosing.

A further data set concerns M. tuberculosis. As to the kind of experiment: Chronic Balb/c mouse model of M. tuberculosis infection. The format is in vivo.
Data set [2] in a line: Single dose pharmacokinetic study after oral administration, with and without ABT pre-dosing. In kind it is in vivo, female Balb/c mice. The procedure:
Based on MIC and acute toxicity data, two compounds ND-011176 and a deuterated analog ND-012101 were selected for evaluation in a single dose pharmacokinetic study (with and without pre-dosing of 1-Aminobenzotriazole, ABT) after oral administration to female Balb/c mice.
All animals were administered with the prepared test article via oral gavage at a target dose level of 200 mg/kg and at the dose volume detailed in the table 1 below. Each animal in Groups 2, 4, 6, 8 and 10 received a dose of ABT (100 mg/kg) via oral gavage two hours prior to Test Article administration.
Whole blood samples (0.1 mL each) were collected at the first time point via submandibular vein (SMV), or an appropriate peripheral vein if it was necessary. Up to 0.5 mL of whole blood was collected at terminal blood collection via intra cardiac puncture (ICP). For animals 1-3 from each of the 10 Groups, blood samples were collected at 0.5 and 4 hours after oral dosing. […]
The plasma samples and dose formulation samples were analyzed by the Testing Facility to determine the concentration of the test article using LC-MS/MS. PK parameters were estimated from the plasma concentration-time data by standard non-compartmental methods utilizing suitable analysis software.

The subject of a further data set is TB infection. The conditions noted are these: cited from earlier work.
The mark [3] stands for this setting: 5 h (mean of the "8" and "12" TP samples taken before euthanasia), PO 200 mg/kg + 100 mg/kg ABT.
Setting [4] is: female, Balb/c, mouse, in vivo, po, 200 mg/kg.
[5] abbreviates: mouse, in vivo, female Balb/c mice, single oral dose 200 mg/kg, no ABT.

SMILES strings stand for the structures. Values joined by “and” are separate entries in the source; they are usually repeats but may differ in a detail not shown here. Equal entries are not always repeated. Where two headings read alike, the source gives them in different places. Marks after values point to notes of the source that are not given here.

Turning to `NNC(=O)c1ccncc1` [INH, Isoniazid, reference compound], the Weight in data set [1] is 19.6 and 20.2 and 20.1 and 19.9 and 19.2 and 20.8. The “Spleen, gross necropsy observation” value with M. tuberculosis (Group 8, INH, after 4 weeks of treatment, individual mice) is given as “enlarged”. For the same compound, in the data set with M. tuberculosis (INH (25), 4 Week Treatment), the “Lung Log10 CFU ± SEM” value turned out to be 4.06 ± 0.11 Log10 CFU and the “Spleen Log10 CFU ± SEM” value was 2.13 ± 0.12^a Log10 CFU. Further, the “Log reduction vs CTL (Lg)” value in the data set with M. tuberculosis (lung, INH (25), 4 Week Treatment) turned out to be 1.73. Moreover, the “Log reduction vs CTL (Sp)” value in the data set on M. tuberculosis (spleen, INH (25), 4 Week Treatment) is 2.87.
Usually Cmax stands for the maximum level reached in the sampled fluid or tissue. As a reminder, the AUC(0-inf) is total exposure, with the tail of the curve extrapolated. Read a high AUC(0-inf) as high exposure. A word on the Tmax: it is the time from dosing to the highest level. The term half-life denotes the time needed for the level to fall by half in the phase considered. Broadly, the AUC is the area under the concentration-time curve, a measure of exposure. As to `Cc1ccc2nc(C)c(C(=O)NCc3ccc(C(F)(F)F)cc3)n2c1` [ND-011176], the “Drug plasma concentration, individual mice” value in data set [2] (0.5 h, PO 200 mg/kg + 100 mg/kg ABT) is 18100 ng/mL and 22600 ng/mL; in data set [2] (0.5 h, PO 200 mg/kg, no ABT, 200 mg/kg), 5140 ng/mL and 7170 ng/mL; in data set [2] (2 h, PO 200 mg/kg + 100 mg/kg ABT) it was 29300 ng/mL and 38200 ng/mL; in data set [2] (2 h, PO 200 mg/kg, no ABT, 200 mg/kg), 5280 ng/mL and 4450 ng/mL; in data set [2] (4 h, PO 200 mg/kg + 100 mg/kg ABT), 34700 ng/mL and 44900 ng/mL; in data set [2] (4 h, PO 200 mg/kg, no ABT, 200 mg/kg) it was 432 ng/mL and 507 ng/mL. The “Drug plasma concentration, individual mice” value in data set [2] (setting [3]) is 39200^^ ng/mL and 41600^^ ng/mL and 44050^^ ng/mL; in data set [2] (8 h, PO 200 mg/kg, no ABT, 200 mg/kg), 110 ng/mL and 25 ng/mL and 88.2 ng/mL; in data set [2] (12 h, PO 200 mg/kg, no ABT, 200 mg/kg), “BQL and 28.8 ng/mL”; in data set [2] (24 h, PO 200 mg/kg, no ABT, 200 mg/kg), “BQL”. Also, the “Drug plasma concentration, Average” value in data set [2] (setting [3]) is given as 41617^^ ng/mL. Further, in data set [2] (female Balb/c mice, single oral dose 200 mg/kg, no ABT), the “% AUC Extrap” value was 0.00%. Besides, the concentration at 0.5 h in data set [2] (female, Balb/c, mouse, in vivo, 0.5 h, PO 200 mg/kg + 100 mg/kg ABT, read-out: Drug plasma concentration, Average) amounted to 20.1 µg/mL; in data set [2] (female, Balb/c, mouse, in vivo, 0.5 h, PO 200 mg/kg + 100 mg/kg ABT, read-out: Drug plasma concentration, individual mice), 19.6 µg/mL; in data set [2] (female, Balb/c, mouse, in vivo, po, 200 mg/kg, 0.5 h, PO 200 mg/kg, no ABT, read-out: Drug plasma concentration, Average) it was 6.73 µg/mL; in data set [2] (female, Balb/c, mouse, in vivo, po, 200 mg/kg, 0.5 h, PO 200 mg/kg, no ABT, read-out: Drug plasma concentration, individual mice), 7.88 µg/mL. The concentration at 2 h in data set [2] (female, Balb/c, mouse, in vivo, 2 h, PO 200 mg/kg + 100 mg/kg ABT, read-out: Drug plasma concentration, Average) came to 34.6 µg/mL; in data set [2] (female, Balb/c, mouse, in vivo, 2 h, PO 200 mg/kg + 100 mg/kg ABT, read-out: Drug plasma concentration, individual mice) it was 36.4 µg/mL; in data set [2] (female, Balb/c, mouse, in vivo, po, 200 mg/kg, 2 h, PO 200 mg/kg, no ABT, read-out: Drug plasma concentration, Average), 6.1 µg/mL; in data set [2] (female, Balb/c, mouse, in vivo, po, 200 mg/kg, 2 h, PO 200 mg/kg, no ABT, read-out: Drug plasma concentration, individual mice) it was 8.58 µg/mL. Besides, the concentration at 4 h in data set [2] (female, Balb/c, mouse, in vivo, 4 h, PO 200 mg/kg + 100 mg/kg ABT, read-out: Drug plasma concentration, Average) is 44.8 µg/mL; in data set [2] (female, Balb/c, mouse, in vivo, 4 h, PO 200 mg/kg + 100 mg/kg ABT, read-out: Drug plasma concentration, individual mice), 54.8 µg/mL; in data set [2] (female, Balb/c, mouse, in vivo, po, 200 mg/kg, 4 h, PO 200 mg/kg, no ABT, read-out: Drug plasma concentration, Average), 0.6 µg/mL; in data set [2] (female, Balb/c, mouse, in vivo, po, 200 mg/kg, 4 h, PO 200 mg/kg, no ABT, read-out: Drug plasma concentration, individual mice), 0.861 µg/mL. The “AUC(0-x)/Dose” value in data set [2] (setting [4]) came out at 78.4 ng·h/mL/mg/kg. The “AUC(0-∞)/Dose” value in data set [2] (setting [4]) is 78.4 ng·h/mL/mg/kg. The same compound came in with a Cmax/Dose in data set [2] (setting [4]) of 34 ng/mL/mg/kg. The concentration at 8 h in data set [2] (female, Balb/c, mouse, in vivo, po, 200 mg/kg, 8 h, PO 200 mg/kg, no ABT, read-out: Drug plasma concentration, Average) turned out to be 0.074 µg/mL. The concentration at 12 h in data set [2] (female, Balb/c, mouse, in vivo, po, 200 mg/kg, 12 h, PO 200 mg/kg, no ABT, read-out: Drug plasma concentration, Average) worked out at 0.034 µg/mL; in data set [2] (female, Balb/c, mouse, in vivo, po, 200 mg/kg, 12 h, PO 200 mg/kg, no ABT, read-out: Drug plasma concentration, individual mice), 0.0401 µg/mL. The concentration at 24 h in data set [2] (female, Balb/c, mouse, in vivo, po, 200 mg/kg, 24 h, PO 200 mg/kg, no ABT, read-out: Drug plasma concentration, Average) was determined as 0.008 µg/mL; in data set [2] (female, Balb/c, mouse, in vivo, po, 200 mg/kg, 24 h, PO 200 mg/kg, no ABT, read-out: Drug plasma concentration, individual mice), 0.00809 µg/mL. In addition, the Cmax in data set [2] (mouse, in vivo, female Balb/c mice, single oral dose 200 mg/kg, ABT 100 mg/kg PO 2 h before, manually added from the TA concentration data) was 44.8 µg/mL; in data set [2] (setting [5]) it was 6.73 µg/mL. This compound had an area under the curve AUC(0-inf) in data set [2] (setting [5]) of 15.7 µg·h/mL. The Tmax in data set [2] (setting [5]) is 0.5 h. Moreover, in data set [2] (setting [5]), the half-life is 1.7 h. The AUC in data set [2] (mouse, in vivo, female Balb/c mice, single oral dose 200 mg/kg, no ABT, read-out: AUC(0-x)) stood at 15.7 µg·h/mL. For the same compound, the “cfu reduction with respect to non-treated controls” value with TB infection (300 mg/kg) and in the data set with TB infection (500 mg/kg) was 2 log cfu each time. Also, the Signs of toxicity result with TB infection (any of the administered doses) was “No signs of toxicity”.

The values above are taken from patent publication US20210009583A1, “DEUTERATED IMIDAZOPYRIDINES” (UNIVERSITY OF NOTRE DAME DU LAC, priority 2018, published 2021).
